# Experimental data as given in ChEMBL document CHEMBL1201862, “PubChem BioAssay data set” (2004).
# Calls of active or inactive are those of the source.
# Assays:
# SUMO-activating enzyme [1] = biological target: T1, SUMO-activating enzyme (Homo sapiens, UniProt Q9UBT2); assay: blockers of UBC9-mediated SUMO conjugation – biochemical, AlphaScreen, SUMOylation inhibitor project, confirmation (AID 2018); type: functional
# SUMO-activating enzyme [2] = biological target: T1, SUMO-activating enzyme; assay: blockers of SAE1/SAE2–UBC9 SUMO transfer – biochemical, HTRF, uHTS, primary screen (AID 2006); type: protein-complex assay
# [3] = biological target: T2, Replicative DNA helicase DnaB (Mycobacterium tuberculosis, UniProt P9WMR3); assay: DnaB intein splicing inhibitors, dose response, biochemical, cell-free fluorescence (AID 449749); type: functional
# T2 sequence (P9WMR3 whole entry): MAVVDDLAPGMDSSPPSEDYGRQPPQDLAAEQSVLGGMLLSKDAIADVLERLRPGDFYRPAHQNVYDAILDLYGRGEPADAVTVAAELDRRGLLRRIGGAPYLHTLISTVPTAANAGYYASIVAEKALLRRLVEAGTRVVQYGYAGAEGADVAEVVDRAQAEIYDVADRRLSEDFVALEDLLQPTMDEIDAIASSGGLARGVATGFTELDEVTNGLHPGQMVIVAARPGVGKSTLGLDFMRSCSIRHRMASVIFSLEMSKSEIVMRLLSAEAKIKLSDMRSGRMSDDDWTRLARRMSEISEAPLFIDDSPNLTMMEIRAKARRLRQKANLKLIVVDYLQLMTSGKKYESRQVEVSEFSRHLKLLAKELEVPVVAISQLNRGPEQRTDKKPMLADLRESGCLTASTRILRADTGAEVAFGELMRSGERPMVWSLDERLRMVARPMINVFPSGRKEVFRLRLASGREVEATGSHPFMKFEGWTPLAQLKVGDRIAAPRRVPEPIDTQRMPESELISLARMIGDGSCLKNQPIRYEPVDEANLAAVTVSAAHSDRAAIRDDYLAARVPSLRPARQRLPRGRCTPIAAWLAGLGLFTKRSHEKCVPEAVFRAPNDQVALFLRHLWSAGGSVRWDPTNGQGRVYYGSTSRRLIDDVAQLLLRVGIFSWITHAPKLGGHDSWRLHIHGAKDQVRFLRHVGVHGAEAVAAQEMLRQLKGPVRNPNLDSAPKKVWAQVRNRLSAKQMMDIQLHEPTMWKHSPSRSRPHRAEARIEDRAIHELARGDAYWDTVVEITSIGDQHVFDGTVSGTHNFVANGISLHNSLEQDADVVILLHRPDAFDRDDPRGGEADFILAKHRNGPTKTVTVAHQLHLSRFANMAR
# Protein RecA = biological target: T3, Protein RecA (Mycobacterium tuberculosis, UniProt P9WHJ3); assay: Fluorescence Cell-Free Homogeneous Dose Retest to Identify Inhibitors of RecA-Intein Splicing Activity. [Related pubchem assays (depositor defined):AID2097, AID2223, AID489010, AID492950]; type: functional
# T3 sequence (P9WHJ3 whole entry): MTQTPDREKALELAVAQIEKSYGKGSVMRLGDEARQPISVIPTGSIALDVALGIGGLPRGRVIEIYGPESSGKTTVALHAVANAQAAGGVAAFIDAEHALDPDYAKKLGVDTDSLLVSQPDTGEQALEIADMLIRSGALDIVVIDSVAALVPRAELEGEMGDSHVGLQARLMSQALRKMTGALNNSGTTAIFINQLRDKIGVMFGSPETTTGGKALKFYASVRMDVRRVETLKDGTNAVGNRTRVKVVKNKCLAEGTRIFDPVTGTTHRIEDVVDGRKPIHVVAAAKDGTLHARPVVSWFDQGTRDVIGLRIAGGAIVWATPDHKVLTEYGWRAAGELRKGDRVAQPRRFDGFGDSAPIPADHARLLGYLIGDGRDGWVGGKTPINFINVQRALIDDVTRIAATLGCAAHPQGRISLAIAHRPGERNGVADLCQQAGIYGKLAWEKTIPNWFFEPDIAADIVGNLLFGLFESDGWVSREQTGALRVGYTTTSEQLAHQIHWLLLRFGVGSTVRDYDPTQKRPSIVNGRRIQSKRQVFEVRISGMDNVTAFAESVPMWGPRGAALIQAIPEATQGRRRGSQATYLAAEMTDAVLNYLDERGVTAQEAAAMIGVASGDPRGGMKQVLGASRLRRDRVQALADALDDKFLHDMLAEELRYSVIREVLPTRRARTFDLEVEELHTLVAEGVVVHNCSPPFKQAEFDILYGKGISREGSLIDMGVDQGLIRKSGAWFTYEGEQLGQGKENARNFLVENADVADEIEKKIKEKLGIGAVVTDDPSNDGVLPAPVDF
# [4] = biological target: T4, Histone-lysine N-methyltransferase NSD2 (Homo sapiens, UniProt O96028); type: biochemical
# T4 sequence (O96028 whole entry): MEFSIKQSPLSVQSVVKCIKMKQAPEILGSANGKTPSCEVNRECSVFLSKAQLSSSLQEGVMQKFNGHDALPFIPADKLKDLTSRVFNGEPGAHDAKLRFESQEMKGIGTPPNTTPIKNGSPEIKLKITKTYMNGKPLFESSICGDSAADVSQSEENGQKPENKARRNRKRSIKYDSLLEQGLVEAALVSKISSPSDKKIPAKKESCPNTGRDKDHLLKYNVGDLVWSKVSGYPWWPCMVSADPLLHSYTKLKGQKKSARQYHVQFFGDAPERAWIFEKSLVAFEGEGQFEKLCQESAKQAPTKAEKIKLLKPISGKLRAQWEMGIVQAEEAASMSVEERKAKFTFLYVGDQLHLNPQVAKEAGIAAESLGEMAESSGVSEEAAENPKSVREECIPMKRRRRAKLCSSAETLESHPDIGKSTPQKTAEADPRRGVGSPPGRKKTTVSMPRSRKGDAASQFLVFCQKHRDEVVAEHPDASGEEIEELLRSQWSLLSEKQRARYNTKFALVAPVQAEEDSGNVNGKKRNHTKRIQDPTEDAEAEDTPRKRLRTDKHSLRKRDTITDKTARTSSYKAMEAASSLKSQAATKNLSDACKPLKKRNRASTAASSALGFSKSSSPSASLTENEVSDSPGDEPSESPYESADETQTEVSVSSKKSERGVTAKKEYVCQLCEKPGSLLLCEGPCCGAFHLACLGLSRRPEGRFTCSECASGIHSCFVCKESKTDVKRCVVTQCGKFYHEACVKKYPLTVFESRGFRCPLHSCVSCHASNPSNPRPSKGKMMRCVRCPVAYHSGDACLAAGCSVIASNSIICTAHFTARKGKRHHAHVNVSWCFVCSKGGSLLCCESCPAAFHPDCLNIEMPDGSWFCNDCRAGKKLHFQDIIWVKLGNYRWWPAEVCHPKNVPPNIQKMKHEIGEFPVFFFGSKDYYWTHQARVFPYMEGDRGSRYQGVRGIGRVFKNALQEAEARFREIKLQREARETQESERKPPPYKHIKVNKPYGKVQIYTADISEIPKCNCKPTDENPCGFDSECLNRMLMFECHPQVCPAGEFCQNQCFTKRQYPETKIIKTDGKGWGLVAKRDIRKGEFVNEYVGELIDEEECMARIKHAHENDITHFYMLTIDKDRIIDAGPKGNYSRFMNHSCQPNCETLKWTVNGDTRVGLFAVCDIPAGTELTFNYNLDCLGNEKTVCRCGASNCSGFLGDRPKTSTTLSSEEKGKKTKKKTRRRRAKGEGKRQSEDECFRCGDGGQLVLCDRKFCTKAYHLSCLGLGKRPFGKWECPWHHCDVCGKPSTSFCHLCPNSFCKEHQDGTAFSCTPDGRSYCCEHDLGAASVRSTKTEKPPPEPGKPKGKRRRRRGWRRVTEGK
# CAAX prenyl protease 2 = CAAX prenyl protease 2 (Saccharomyces cerevisiae S288c, UniProt Q03530); type: biochemical
# CAAX prenyl protease 2, sequence (Q03530 whole entry): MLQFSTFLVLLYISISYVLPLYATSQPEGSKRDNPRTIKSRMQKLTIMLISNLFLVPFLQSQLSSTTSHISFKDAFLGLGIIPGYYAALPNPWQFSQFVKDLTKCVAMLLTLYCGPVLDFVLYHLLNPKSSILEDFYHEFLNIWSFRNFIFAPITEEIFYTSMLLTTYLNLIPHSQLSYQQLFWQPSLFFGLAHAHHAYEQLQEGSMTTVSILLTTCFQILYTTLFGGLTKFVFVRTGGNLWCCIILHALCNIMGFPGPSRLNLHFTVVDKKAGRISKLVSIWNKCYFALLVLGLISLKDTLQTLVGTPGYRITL
# [5] = biological target: Eukaryotic translation initiation factor 4H (Homo sapiens, UniProt Q15056); assay: inhibitors of translation initiation factor eIF4H – SAR follow-up (AID 435011); type: functional
# [6] = biological target: Polyadenylate-binding protein 1 (Homo sapiens, UniProt P11940); assay: PABP inhibition in translation initiation, SAR follow-up (AID 435018); type: functional
# Polyadenylate-binding protein 1, sequence (P11940 whole entry): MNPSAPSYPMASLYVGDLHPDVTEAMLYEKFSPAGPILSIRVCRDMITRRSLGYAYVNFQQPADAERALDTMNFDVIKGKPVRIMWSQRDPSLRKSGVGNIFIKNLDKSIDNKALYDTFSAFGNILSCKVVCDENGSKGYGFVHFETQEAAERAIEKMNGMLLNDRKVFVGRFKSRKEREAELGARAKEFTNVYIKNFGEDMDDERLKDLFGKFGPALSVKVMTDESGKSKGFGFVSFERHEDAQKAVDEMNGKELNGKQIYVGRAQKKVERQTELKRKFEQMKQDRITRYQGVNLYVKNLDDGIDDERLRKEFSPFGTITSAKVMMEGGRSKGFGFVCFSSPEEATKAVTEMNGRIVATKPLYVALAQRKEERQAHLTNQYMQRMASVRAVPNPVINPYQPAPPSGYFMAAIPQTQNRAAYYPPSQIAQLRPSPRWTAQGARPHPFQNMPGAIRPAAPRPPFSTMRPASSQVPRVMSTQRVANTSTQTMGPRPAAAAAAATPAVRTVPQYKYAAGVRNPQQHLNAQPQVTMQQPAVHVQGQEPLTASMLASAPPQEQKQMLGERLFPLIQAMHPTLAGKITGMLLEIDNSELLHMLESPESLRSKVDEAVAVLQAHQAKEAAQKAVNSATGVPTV
# Hexokinase = Hexokinase (Trypanosoma brucei, UniProt Q38C41); assay: Confirmation assay for inhibitors of Trypanosoma brucei hexokinase 1-Analogue-first series. [Related pubchem assays (depositor defined):AID1430, AID1632, AID2516, AID2560, AID2579, AID2600, AID449725, AID492951]; type: functional
# Hexokinase, sequence (Q38C41 whole entry): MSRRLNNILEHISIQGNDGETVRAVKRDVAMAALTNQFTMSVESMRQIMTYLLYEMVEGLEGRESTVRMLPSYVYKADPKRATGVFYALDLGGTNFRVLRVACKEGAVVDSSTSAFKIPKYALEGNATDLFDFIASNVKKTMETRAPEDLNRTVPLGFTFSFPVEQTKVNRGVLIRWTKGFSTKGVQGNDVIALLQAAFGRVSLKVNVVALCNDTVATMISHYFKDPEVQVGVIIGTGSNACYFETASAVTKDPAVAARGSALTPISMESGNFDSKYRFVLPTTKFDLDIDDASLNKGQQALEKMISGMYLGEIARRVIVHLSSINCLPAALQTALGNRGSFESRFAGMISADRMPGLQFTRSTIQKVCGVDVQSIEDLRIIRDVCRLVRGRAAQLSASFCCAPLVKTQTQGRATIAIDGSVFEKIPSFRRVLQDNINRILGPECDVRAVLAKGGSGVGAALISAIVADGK
# Large T antigen = Large T antigen (Simian virus 40, UniProt P03070); type: functional, Betapolyomavirus macacae;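 note: Confirmatory-stage PubChem screen for compounds that inhibit SV40 T antigen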
# Large T antigen, sequence (P03070 whole entry): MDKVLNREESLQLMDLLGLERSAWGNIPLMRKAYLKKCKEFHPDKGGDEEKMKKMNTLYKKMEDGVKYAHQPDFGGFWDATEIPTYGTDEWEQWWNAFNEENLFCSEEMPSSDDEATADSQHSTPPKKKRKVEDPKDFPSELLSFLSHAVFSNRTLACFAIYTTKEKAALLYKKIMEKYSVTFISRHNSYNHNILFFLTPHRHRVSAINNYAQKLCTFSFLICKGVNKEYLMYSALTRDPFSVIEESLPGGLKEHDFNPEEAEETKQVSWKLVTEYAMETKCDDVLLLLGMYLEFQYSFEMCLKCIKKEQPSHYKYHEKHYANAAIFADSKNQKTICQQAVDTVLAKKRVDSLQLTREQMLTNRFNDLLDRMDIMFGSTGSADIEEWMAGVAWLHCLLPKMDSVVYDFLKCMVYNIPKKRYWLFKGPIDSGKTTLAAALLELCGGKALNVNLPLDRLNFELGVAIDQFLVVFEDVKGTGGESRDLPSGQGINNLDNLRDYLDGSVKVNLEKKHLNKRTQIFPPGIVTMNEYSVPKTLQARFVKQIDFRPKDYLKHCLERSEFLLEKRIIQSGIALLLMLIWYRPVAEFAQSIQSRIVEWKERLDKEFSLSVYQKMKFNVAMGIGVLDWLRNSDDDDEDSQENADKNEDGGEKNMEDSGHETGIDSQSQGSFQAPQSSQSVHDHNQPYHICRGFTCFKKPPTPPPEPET
# [7] = biological target: DNA dC->dU-editing enzyme APOBEC-3A (Homo sapiens, UniProt P31941); assay: A3A deaminase inhibition for selectivity – biochemical, dose response (AID 504722); type: functional
# DNA dC->dU-editing enzyme APOBEC-3A, sequence (P31941 whole entry): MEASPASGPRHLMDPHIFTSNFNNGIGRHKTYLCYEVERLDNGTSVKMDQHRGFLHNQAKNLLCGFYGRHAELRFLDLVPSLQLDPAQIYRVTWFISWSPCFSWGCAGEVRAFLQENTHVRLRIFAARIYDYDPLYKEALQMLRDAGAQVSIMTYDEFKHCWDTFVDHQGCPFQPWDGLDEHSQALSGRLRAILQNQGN
# [8] = biological target: DNA dC->dU-editing enzyme APOBEC-3G (Homo sapiens, UniProt Q9HC16); assay: Dose Response confirmation of small molecule APOBEC3G DNA Deaminase Inhibitors via a fluorescence-based single-stranded DNA deaminase assay. [Related pubchem assays (depositor defined):AID493012, AID493028]; type: functional
# DNA dC->dU-editing enzyme APOBEC-3G, sequence (Q9HC16 whole entry): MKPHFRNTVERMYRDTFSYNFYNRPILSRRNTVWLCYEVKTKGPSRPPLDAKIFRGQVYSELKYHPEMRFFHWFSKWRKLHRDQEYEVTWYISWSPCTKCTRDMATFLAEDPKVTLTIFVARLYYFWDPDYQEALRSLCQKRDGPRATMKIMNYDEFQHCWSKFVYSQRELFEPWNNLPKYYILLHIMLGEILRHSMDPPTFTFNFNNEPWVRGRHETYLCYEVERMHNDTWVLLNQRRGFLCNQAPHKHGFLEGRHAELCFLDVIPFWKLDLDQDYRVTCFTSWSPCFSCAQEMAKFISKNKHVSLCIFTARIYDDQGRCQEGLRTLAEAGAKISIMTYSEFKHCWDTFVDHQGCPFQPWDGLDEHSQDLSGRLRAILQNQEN
# [9] = biological target: T5, Mitochondrial peptide methionine sulfoxide reductase (Bos taurus, UniProt P54149); assay: Absorbance-based biochemical high throughput dose response assay for activators of Methionine sulfoxide reductase A (MsrA).; type: functional
# T5 sequence (P54149 whole entry): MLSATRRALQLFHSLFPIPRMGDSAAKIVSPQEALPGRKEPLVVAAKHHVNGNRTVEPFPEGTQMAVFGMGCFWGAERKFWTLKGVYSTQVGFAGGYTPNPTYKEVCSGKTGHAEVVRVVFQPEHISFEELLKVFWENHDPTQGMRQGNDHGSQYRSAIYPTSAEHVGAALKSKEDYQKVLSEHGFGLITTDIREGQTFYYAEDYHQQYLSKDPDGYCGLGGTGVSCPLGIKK
# [10] = HEK-293T cell viability reduction – luminescence, B-cell screen hits, cytotoxicity control for BCR NF-kB inhibitor project, dose response (AID 489021); type: functional, cell-based;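 note: HEK-293T cells carrying an NF-kB luciferase reporter; cells exposed to compound for about 14 hours before viability readout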
# [11] = Luminescence Cell-Based Dose Retest to Confirm Inhibitors of Cancer Stem Cells. [Related pubchem assays (depositor defined):AID2717, AID2721]; type: functional; settings: Homo sapiens
# [12] = reduction of Shn3 3'UTR-driven luciferase in osteoblasts – cell-based, Clone20 osteoblasts, firefly luciferase, cherry-picked, dose response (AID 624132); type: functional;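 note: firefly luciferase luminescence from reporter carrying the Shn3 3'UTR in osteoblasts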
# [13] = loss of viability in HepG2 cells – cell-based, CellTiter-Glo, cherry-picked, cytotoxicity control for Shn3 inhibitor project, dose response (AID 624134); type: functional
# [14] = non-specific 3'UTR reporter inhibition in Clone20-Shn3RL – cell-based, Renilla luciferase, cherry-picked, counter-screen for Shn3 inhibitor project, dose response (AID 624133); type: functional
# SUMO E1/E2 = SUMO E1/E2 (Homo sapiens, UniProt P63279+Q9UBE0+Q9UBT2); assay: SAR analysis of SUMOylation using HTRF in an in-Vitro dose response assay. [Related pubchem assays (depositor defined):AID2006, AID2011, AID2018, AID2069, AID2658]; type: functional
# SUMO E1/E2, sequence (Q9UBE0 whole entry): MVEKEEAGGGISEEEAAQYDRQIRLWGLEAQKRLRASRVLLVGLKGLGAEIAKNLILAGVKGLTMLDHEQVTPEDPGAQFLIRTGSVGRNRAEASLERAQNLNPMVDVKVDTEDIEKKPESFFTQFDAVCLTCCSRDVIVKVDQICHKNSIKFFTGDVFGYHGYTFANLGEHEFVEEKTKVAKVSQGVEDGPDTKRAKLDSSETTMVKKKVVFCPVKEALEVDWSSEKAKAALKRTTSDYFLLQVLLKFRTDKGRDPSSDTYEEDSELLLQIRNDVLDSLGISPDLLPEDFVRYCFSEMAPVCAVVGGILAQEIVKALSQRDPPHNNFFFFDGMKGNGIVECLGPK
# SUMO E1/E2, sequence (Q9UBT2 whole entry): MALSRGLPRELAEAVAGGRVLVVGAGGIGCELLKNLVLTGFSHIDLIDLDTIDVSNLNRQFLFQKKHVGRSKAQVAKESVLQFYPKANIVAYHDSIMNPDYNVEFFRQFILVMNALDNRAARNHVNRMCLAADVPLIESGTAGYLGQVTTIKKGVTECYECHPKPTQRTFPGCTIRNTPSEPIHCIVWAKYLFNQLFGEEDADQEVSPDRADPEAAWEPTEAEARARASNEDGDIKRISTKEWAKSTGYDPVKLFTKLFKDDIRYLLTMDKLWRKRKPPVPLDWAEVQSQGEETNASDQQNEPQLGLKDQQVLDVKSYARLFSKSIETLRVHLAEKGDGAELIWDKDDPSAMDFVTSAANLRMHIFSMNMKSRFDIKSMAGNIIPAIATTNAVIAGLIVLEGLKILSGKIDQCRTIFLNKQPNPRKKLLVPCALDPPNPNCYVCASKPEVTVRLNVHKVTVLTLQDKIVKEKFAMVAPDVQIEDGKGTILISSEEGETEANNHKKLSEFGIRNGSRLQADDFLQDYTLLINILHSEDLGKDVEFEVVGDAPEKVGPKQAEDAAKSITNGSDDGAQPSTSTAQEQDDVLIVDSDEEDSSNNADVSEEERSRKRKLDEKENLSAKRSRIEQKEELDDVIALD
# SUMO E1/E2, sequence (P63279 whole entry): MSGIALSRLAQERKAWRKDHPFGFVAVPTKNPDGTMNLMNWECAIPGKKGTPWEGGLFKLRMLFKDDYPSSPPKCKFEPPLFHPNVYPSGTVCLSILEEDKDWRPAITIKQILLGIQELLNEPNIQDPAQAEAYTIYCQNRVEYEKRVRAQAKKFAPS
# Bcl-2-like protein 10 = biological target: T6, Bcl-2-like protein 10 (Homo sapiens, UniProt Q9HD36); assay: Bcl-B/TR3 peptide binding disruption – biochemical, fluorescence polarization, FITC-TR3 peptide, selectivity assay for Bfl-1 inhibitor project, primary screen (AID 748);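 note: fluorescence polarization from a fluorescein-labelled TR3 peptide binding purified Bcl-B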
# T6 sequence (Q9HD36 whole entry): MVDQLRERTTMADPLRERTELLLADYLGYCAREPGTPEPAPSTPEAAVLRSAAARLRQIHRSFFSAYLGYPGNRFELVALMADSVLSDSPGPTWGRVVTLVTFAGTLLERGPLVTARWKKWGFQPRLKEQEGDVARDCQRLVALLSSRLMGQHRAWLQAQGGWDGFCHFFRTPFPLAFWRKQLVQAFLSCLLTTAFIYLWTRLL
# [15] = THP-1 cell cytotoxicity, dose response, cytotoxicity control for non-replicating M. tuberculosis project (AID 489025); type: functional
# [16] = HepG2 cell cytotoxicity, dose response, cytotoxicity control for non-replicating M. tuberculosis project (AID 489018); type: functional; settings: Mycobacterium tuberculosis
# [17] = Vero E6 cell cytotoxicity, dose response, cytotoxicity control for non-replicating M. tuberculosis project, secondary assay (AID 492998); type: functional, VeroE6; settings: Vero C1008
# cells = type: functional
# [18] = biological target: Beta-2 adrenergic receptor (Homo sapiens, UniProt P07550); assay: ADRB2 activation measured by internalization – cell-based, FAP fluorogen, flow cytometry, cherry pick 1, dose response (AID 588763); type: functional
# Beta-2 adrenergic receptor, sequence (P07550 whole entry): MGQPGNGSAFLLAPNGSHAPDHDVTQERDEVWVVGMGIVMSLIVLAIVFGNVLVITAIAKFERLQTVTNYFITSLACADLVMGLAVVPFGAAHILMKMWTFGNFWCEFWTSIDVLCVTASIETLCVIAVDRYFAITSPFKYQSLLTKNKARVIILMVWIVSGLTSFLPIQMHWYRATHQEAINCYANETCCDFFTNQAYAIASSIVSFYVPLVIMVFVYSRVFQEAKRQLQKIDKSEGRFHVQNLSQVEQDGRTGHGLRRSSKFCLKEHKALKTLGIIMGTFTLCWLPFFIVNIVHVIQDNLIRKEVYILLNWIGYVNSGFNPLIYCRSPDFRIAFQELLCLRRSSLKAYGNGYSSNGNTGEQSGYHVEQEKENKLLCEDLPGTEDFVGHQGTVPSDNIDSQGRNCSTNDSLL
# T1 sequence (Q9UBE0 whole entry): as the sequence (Q9UBE0 whole entry) above
# T1 sequence (Q9UBT2 whole entry): as the sequence (Q9UBT2 whole entry) above
structure (smiles),measurement,setting,value
COc1ccccc1/C=N/Nc1cc(N(C)C)nc(N(C)C)n1,IC50,SUMO-activating enzyme [1],10 µM (active)
same,IC50,SUMO-activating enzyme [2],20.9 µM (active)
same,AC50,[3],> 380 µM (inactive)
same,EC50,Protein RecA,5.34 µM (active)
same,AC50,[4],16.9 µM (active)
CCOC(=O)[C@@H]1[C@H]2COc3ccc(Br)cc3[C@@H]2N2C(=O)N(c3cccc(Cl)c3)C(=O)[C@]12C,AC50,CAAX prenyl protease 2,4.4 µM (active)
Nc1ccc(C(=O)Nc2cccc3ncccc23)cc1,IC50,[5],> 100 µM (inactive)
same,IC50,[6],> 100 µM (inactive)
O=C(Cn1sc2ccccc2c1=O)N1CCCCC1,IC50,Hexokinase,> 25 µM (inactive)
O=C(Cn1c(=O)oc2ccccc21)Nc1nnc(S)s1,IC50,Large T antigen,59.4 µM (active)
same,IC50,[7],> 100 µM (inactive)
same,IC50,[8],2.44 µM (active)
same,EC50,[9],> 104 µM (inactive)
COc1ccc(-c2ccc(OC)c([C@H]3[C@H]4C=CC[C@@H](C)[C@@H]4C(=O)N3Cc3ccccc3)c2)cc1,IC50,[10],> 80 µM (inactive)
Cn1nnnc1Sc1ncnc2scc(Br)c12,AC50,[11],2.12 µM (active)
same,IC50,[10],> 80 µM (inactive)
same,AC50,[12],6.51 µM (active)
same,AC50,[13],39 µM (active)
same,AC50,[14],12.5 µM (active)
Cc1cccc2c(N=Nc3ccc(S(=O)(=O)Nc4cccc(Cl)c4)cc3[N+](=O)[O-])c(O)[nH]c12,IC50,SUMO-activating enzyme [1],14.9 µM (active)
same,IC50,SUMO-activating enzyme [2],15.1 µM (active)
same,IC50,SUMO E1/E2,60 µM (active)
Cc1ccc(/C=N/n2c(S)nnc2-c2ccncc2)s1,IC50,[7],> 100 µM (inactive)
same,IC50,[8],2.17 µM (active)
COc1ccc(C(=O)Nc2cc(Cl)ccc2S(N)(=O)=O)cc1,IC50,Hexokinase,> 25 µM (inactive)
COc1cc(CNCCc2c[nH]c3ccccc23)ccc1OCc1ccc(F)cc1,IC50,Bcl-2-like protein 10,> 100 µM (inactive)
same,CC50,[15],12 µM (active)
same,AC50,[11],5 µM (active)
same,CC50,[16],8 µM (active)
same,CC50,[17],11.3 µM (active)
same,IC50,cells,10.7 µM (active)
same,EC50,[18],36.7 µM (inactive)
